{
  "source": "patent US6331555A",
  "about": "“Treatment of platelet derived growth factor related disorders such as cancers” (priority 1999, dated 2001)",
  "assay_in_all_cases": "Tumor cell line growth",
  "type_in_all_cases": "cell-based",
  "key": {"A172": {"tested_on": "A172", "settings": "Homo sapiens, A 172, 96 h; glioma, 4 days", "protocol": "(§1) The assay measures protein content of acid-fixed cells using the counterion binding dye sulforhodamine B (SRB, Sigma). […] For other cell lines, the cells (2000 cells/well in 100 μL) were introduced into wells immediately after dispensing the drug solutions. After 4 days (37° C., 5% CO2) the monolayers were washed 3 times with PBS and fixed with 200 μL ice-cold 10% TCA (Fisher Scientific), and kept at 4° C. for 60 min. The TCA was removed and the fixed monolayers were washed 5 times with tap water and allowed to dry completely at room temperature on absorbent paper. The cellular protein was stained for 10 min with 100 μL 0.4% SRB dissolved in 1% acetic acid. After 5 washes with tap water, the dye was solubilized in 10 mM Tris base (100 μL per well) and absorbance read at 570 nm on a Dynatech plate reader model MR5000. Growth inhibition data are expressed as a percentage of absorbance detected in control wells which were treated with 0.4% DMSO alone. DMSO controls were not different from cells grown in regular growth medium. IC50 values were determined using a four parameter curve fit function.\n(§2) For K562, DlB, L1210, 7TDl, T27A, and Colo320 DM cells, an MTT assay was used to assess cell growth. […] The cells were incubated at 37° C. for 4 days in a humidified 7% CO2 atmosphere. At the end point, […] of MTT (5 mg/mL in PBS, Sigma) was added to each well. The plates were incubated at 37° C. for 4 hr followed by addition of […] of solubilization solution (20% w/v of SDS in 50% N, N-dimethylformamide, pH 4.7) to each well. The plates were incubated overnight in a sealed container with a humidified atmosphere. The absorbance was determined at 570 nm wavelength with a reference wavelength of 630 nm using an ELISA plate reader."}, "A375": {"tested_on": "A375", "settings": "Homo sapiens, A-375, 96 h; melanoma, 4 days", "protocol": "as §1, §2"}, "A431": {"tested_on": "A431", "settings": "Homo sapiens, A-431, 96 h; epidermoid, 4 days", "protocol": "as §1, §2"}, "A549": {"tested_on": "A549", "settings": "Homo sapiens, A549, 96 h; lung, 4 days", "protocol": "as §1, §2"}, "BT549": {"tested_on": "BT549", "settings": "Homo sapiens, BT-549, 96 h; breast, 4 days", "protocol": "as §1, §2"}, "C81-61": {"tested_on": "C81-61", "settings": "Homo sapiens, C8161, 96 h; melanoma, 4 days", "protocol": "as §1, §2"}, "Calu-3": {"tested_on": "Calu-3", "settings": "Homo sapiens, Calu-3, 96 h; lung, 4 days", "protocol": "as §1, §2"}, "Calu-6": {"tested_on": "Calu-6", "settings": "Homo sapiens, Calu-6, 96 h; lung, 4 days", "protocol": "as §1, §2"}, "DU145": {"tested_on": "DU145", "settings": "Homo sapiens, DU-145, 96 h; prostate, 4 days", "protocol": "as §1, §2"}, "K562": {"tested_on": "K562", "settings": "Homo sapiens, K562, 96 h; leukemia, 4 days", "protocol": "as §1, §2"}, "MCF7/HER2": {"tested_on": "MCF7/HER2", "settings": "Homo sapiens, MCF7, 96 h; breast, 4 days", "protocol": "as §1, §2"}, "MCF7": {"tested_on": "MCF7", "settings": "Homo sapiens, MCF7, 96 h; breast, 4 days", "protocol": "as §1, §2"}, "MDA MB 361": {"tested_on": "MDA MB 361", "settings": "Homo sapiens, MDA-MB-361, 96 h; breast, 4 days", "protocol": "as §1, §2"}, "MDA MB 468": {"tested_on": "MDA MB 468", "settings": "Homo sapiens, MDA-MB-468, 96 h; breast, 4 days", "protocol": "as §1, §2"}, "SF763T": {"tested_on": "SF763T", "settings": "Homo sapiens, 96 h; glioma, 4 days", "protocol": "as §1, §2"}, "SF763": {"tested_on": "SF763", "protocol": "as §1, §2"}, "SF767T": {"tested_on": "SF767T", "settings": "Homo sapiens", "protocol": "as §1, §2"}, "SKBR3": {"tested_on": "SKBR3", "settings": "Homo sapiens, SK-BR-3, 96 h; breast, 4 days", "protocol": "as §1, §2"}, "SKOV3T": {"tested_on": "SKOV3T", "settings": "Homo sapiens", "protocol": "as §1, §2"}, "SKOV3": {"tested_on": "SKOV3", "settings": "Homo sapiens", "protocol": "as §1, §2"}, "T47D": {"tested_on": "T47D", "settings": "Homo sapiens, 96 h, breast, 4 days", "protocol": "as §1, §2"}, "T98G": {"tested_on": "T98G", "settings": "Homo sapiens, 96 h, glioma, 4 days", "protocol": "as §1, §2"}, "U118MG": {"tested_on": "U118MG", "settings": "Homo sapiens, U-118-MG, 96 h; glioma, 4 days", "protocol": "as §1, §2"}, "U1240": {"tested_on": "U1240", "settings": "96 h; glioma, 4 days", "protocol": "as §1, §2"}, "U1242": {"tested_on": "U1242", "settings": "96 h; glioma, 4 days", "protocol": "as §1, §2"}, "U138MG": {"tested_on": "U138MG", "settings": "Homo sapiens, U138-MG, 96 h; glioma, 4 days", "protocol": "as §1, §2"}, "U373MG": {"tested_on": "U373MG", "settings": "Homo sapiens, U373 MG, 96 h; glioma, 4 days", "protocol": "as §1, §2"}, "U87MG": {"tested_on": "U87MG", "settings": "Homo sapiens, U-87 MG, 96 h; glioma, 4 days", "protocol": "as §1, §2"}, "ZR 75-1": {"tested_on": "ZR 75-1", "settings": "Homo sapiens, ZR-75-1, 96 h; breast, 4 days", "protocol": "as §1, §2"}, "ZR75-30": {"tested_on": "ZR75-30", "settings": "Homo sapiens, ZR-75-30, 96 h; breast, 4 days", "protocol": "as §1, §2"}, "[1]": {"settings": "PDGF-R expression ++, read-out: SRB"}},
  "note": "Read-outs that look alike come from different tables or passages of the source.",
  "data": [
    {"smiles": "Cc1oncc1C(=O)Nc1ccc(C(F)(F)F)cc1", "note": "[Compound A10, 5-methylisoxazole-4 carboxylic acid-(4-trifluromethyl)-anilide]", "values": [
      {"measurement": "IC50", "setting": "A172", "result": 32, "unit": "µM"},
      {"measurement": "IC50", "setting": "A375", "result": 25, "unit": "µM"},
      {"measurement": "IC50", "setting": "A431", "result": 34, "unit": "µM"},
      {"measurement": "IC50", "setting": "A549", "result": 118, "unit": "µM"},
      {"measurement": "IC50", "setting": "BT549", "result": "> 400", "unit": "µM"},
      {"measurement": "IC50", "setting": "C81-61", "result": 40, "unit": "µM"},
      {"measurement": "IC50", "setting": "Calu-3", "result": "> 400", "unit": "µM"},
      {"measurement": "IC50", "setting": "Calu-6", "result": 70, "unit": "µM"},
      {"measurement": "IC50", "setting": "DU145", "result": "> 100", "unit": "µM"},
      {"measurement": "IC50", "setting": "K562", "result": 26, "unit": "µM"},
      {"measurement": "IC50", "setting": "MCF7/HER2", "result": 116, "unit": "µM"},
      {"measurement": "IC50", "setting": "MCF7", "result": 288, "unit": "µM"},
      {"measurement": "IC50", "setting": "MDA MB 361", "result": 200, "unit": "µM"},
      {"measurement": "IC50", "setting": "MDA MB 468", "result": 150, "unit": "µM"},
      {"measurement": "IC50", "setting": "SF763T", "result": 0.8, "unit": "µM"},
      {"measurement": "IC50", "setting": "SF763; SF763, 96 h, glioma, 4 days, read-out: IC50", "result": 110, "unit": "µM"},
      {"measurement": "IC50", "setting": "SF763; SF763, PDGF-R expression -, read-out: SRB", "result": "> 100", "unit": "µM"},
      {"measurement": "IC50", "setting": "SF767T; 96 h, glioma, 4 days, read-out: IC50", "result": 3, "unit": "µM"},
      {"measurement": "IC50", "setting": "SF767T; [1]", "result": 3, "unit": "µM"},
      {"measurement": "IC50", "setting": "SKBR3", "result": "> 400", "unit": "µM"},
      {"measurement": "IC50", "setting": "SKOV3T; 96 h, ovarian, 4 days, read-out: IC50", "result": 40, "unit": "µM"},
      {"measurement": "IC50", "setting": "SKOV3T; [1]", "result": 50, "unit": "µM"},
      {"measurement": "IC50", "setting": "SKOV3; SK-OV-3, 96 h, ovarian, 4 days, read-out: IC50", "result": "> 100", "unit": "µM"},
      {"measurement": "IC50", "setting": "SKOV3; SK-OV-3, PDGF-R expression -, read-out: SRB", "result": "> 100", "unit": "µM"},
      {"measurement": "IC50", "setting": "T47D", "result": 195, "unit": "µM"},
      {"measurement": "IC50", "setting": "T98G", "result": 62, "unit": "µM"},
      {"measurement": "IC50", "setting": "U118MG", "result": 150, "unit": "µM"},
      {"measurement": "IC50", "setting": "U1240", "result": 250, "unit": "µM"},
      {"measurement": "IC50", "setting": "U1242", "result": 19, "unit": "µM"},
      {"measurement": "IC50", "setting": "U138MG", "result": "> 400", "unit": "µM"},
      {"measurement": "IC50", "setting": "U373MG", "result": 115, "unit": "µM"},
      {"measurement": "IC50", "setting": "U87MG", "result": 78, "unit": "µM"},
      {"measurement": "IC50", "setting": "ZR 75-1", "result": 355, "unit": "µM"},
      {"measurement": "IC50", "setting": "ZR75-30", "result": 300, "unit": "µM"}
    ]}
  ]
}
